Measurements from US7879846B2, “Serine hydrolase inhibitors” (Kyorin Pharmaceutical Co.., Ltd., priority 2006, dated 2011).

These molecules were tested against T1, Human sputum neutrophil elastase (Homo sapiens, UniProt P08246) (assay: Inhibitor IC50 against human neutrophil elastase (fluorogenic MeOSuc-AAPV-AMC substrate)). Conditions: 20 min preincubation, read-out: HNE IC50.
T1 construct: purchased Elastin Products Co; host or cells: human sputum (natural source)
T1 sequence (P08246 30-247 limits assumed): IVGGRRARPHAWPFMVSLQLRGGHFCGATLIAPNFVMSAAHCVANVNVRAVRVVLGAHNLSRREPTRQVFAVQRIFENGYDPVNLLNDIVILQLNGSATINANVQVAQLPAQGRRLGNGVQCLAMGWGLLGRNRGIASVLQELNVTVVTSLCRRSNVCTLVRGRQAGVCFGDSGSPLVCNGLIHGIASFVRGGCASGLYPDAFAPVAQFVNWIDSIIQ
Assay type: biochemical
Method: Determination of Inhibitor IC50 Values Against Human Neutrophil Elastase
Human sputum neutrophil elastase (Elastin Products Co.) was diluted into Assay Buffer A (200 mM Tris pH 7.4, 1 mg/ml BSA) to a working concentration of 0.55 U/ml. […] DMSO alone was used as the negative control. MeOSuc-AAPV-AMC (Bachem) substrate was dissolved in DMSO to 20 mM and further diluted to 1 mM in Assay Buffer A immediately before use. Substrate was added to the elastase assay at a final concentration of 1×10^−4 M. The reaction was allowed to proceed for 20 minutes at room temperature and then quenched with acetic acid at a final concentration of 3% (v/v). […] Fluorescence intensity versus inhibitor concentration was plotted and fit to the Hill equation to quantify IC50 values.
Molecule CCc1cc(OC)cc2nc(-c3cccnc3N3CCN(C(C)C)CC3)oc(=O)c12 [Compound 201] has an IC50 of 16 to 60 nM. CCc1cc(OC)cc2nc(-c3cccnc3N3CCN(c4ccncc4)CC3)oc(=O)c12 [Compound 252] gave an IC50 of under 15 nM. For CCc1cc(OC)cc2nc(-c3cccnc3N3CCC(N4CCCC4)CC3)oc(=O)c12 [Compound 215], the IC50 was under 15 nM. Molecule Cc1cccc2nc(-c3cccc[n+]3[O-])oc(=O)c12 [Compound 73] has an IC50 of over 150 nM. In the case of O=c1oc(-c2ccccn2)nc2cccc(Cl)c12 [Compound 12], the IC50 is reported as 61 to 150 nM. Molecule COc1cc(C(C)C)c2c(=O)oc(-c3cccnc3N(C)CCN(C)C)nc2c1 [Compound 118] has an IC50 of 61 to 150 nM. In the case of CCCc1cc(OC)cc2nc(-c3cccnc3N3CC[C@@H](N(C)C)C3)oc(=O)c12 [Compound 149], the IC50 is reported as 61 to 150 nM. In the case of CCc1cccc2nc(-c3cccnc3N3CC[C@H](N(C)C)C3)oc(=O)c12 [Compound 91], the IC50 is reported as under 15 nM. For CCc1cccc2nc(-c3cccnc3N3CCC(N(C)C)C3)oc(=O)c12 (stereo not drawn) [Compound 85], the IC50 was under 15 nM. O=c1oc(-c2cccnc2Oc2ccccc2)nc2cc(Cl)cc(Cl)c12 [Compound 14] was tested, and the IC50 was over 150 nM. For COc1cccc2nc(-c3cccnc3N(C)CC(=O)OCc3ccccc3)oc(=O)c12 [Compound 41], the IC50 was over 150 nM. CCc1cccc2nc(-c3cccnc3N3CC[N+](C)(Cc4ccc(OC)cc4)CC3)oc(=O)c12 [Compound 102] showed an IC50 of under 15 nM. Molecule COc1cc(C(C)C)c2c(=O)oc(-c3cnn(C)c3N3CCC(N(C)C)C3)nc2c1 (stereo not drawn) [Compound 127] has an IC50 of over 150 nM. With CCCc1cc(OC)cc2nc(-c3cccnc3N3CCN(CCOC)CC3)oc(=O)c12 [Compound 150] the IC50 was 61 to 150 nM. With CCc1cc(OC)cc2nc(-c3cccnc3N3CCC(c4c[nH]cn4)CC3)oc(=O)c12 [Compound 275] the IC50 was under 15 nM. For Cc1cccc2nc(-c3ccncc3)oc(=O)c12 [Compound 9], the IC50 was over 150 nM. Molecule CCc1cccc2nc(-c3cccnc3N3CC[N+](C)(C)CC3)oc(=O)c12 [Compound 95] has an IC50 of under 15 nM. With C#CCCN1CCN(c2ncccc2-c2nc3cc(OC)cc(CC)c3c(=O)o2)CC1 [Compound 228] the IC50 was under 15 nM. With CSc1ncccc1-c1nc2cccc(Cl)c2c(=O)o1 [Compound 27] the IC50 was 61 to 150 nM. With O=c1oc(-c2ncccc2-n2ccnc2)nc2cccc(Cl)c12 [Compound 70] the IC50 was over 150 nM. Molecule COc1cc(C2CC2)c2c(=O)oc(-c3cccnc3N3CCN(CC4CC4)CC3)nc2c1 [Compound 166] has an IC50 of 61 to 150 nM. Molecule CCc1cc(OC)cc2nc(-c3cccnc3N(C)CCN3CCCC3)oc(=O)c12 [Compound 237] has an IC50 of under 15 nM. COc1cccc2nc(-c3cccnc3N3CCN(C)C(C)C3)oc(=O)c12 (stereo not drawn) [Compound 45] showed an IC50 of over 150 nM. With COc1cccc2nc(-c3cccnc3N3CCC[C@H]3C(=O)OC(C)(C)C)oc(=O)c12 [Compound 42] the IC50 was over 150 nM. Work on COc1cc(C2CC2)c2c(=O)oc(-c3cccnc3N3CCCN(C)CC3)nc2c1 [Compound 140] yielded an IC50 of 61 to 150 nM. Work on CCc1cc(OC)cc2nc(-c3cccnc3N3CC[N+](C)(CCOC)CC3)oc(=O)c12 [Compound 230] yielded an IC50 of under 15 nM. CCc1cccc2nc(-c3cccnc3N3CCN(CCOC)CC3)oc(=O)c12 [Compound 89] gave an IC50 of under 15 nM. For CCc1cccc2nc(-c3cccnc3N3CCCN(C)CC3)oc(=O)c12 [Compound 92], the IC50 was under 15 nM. Work on CCc1cc(OC)cc2nc(-c3cccnc3N3CCC(CN4CCOCC4)CC3)oc(=O)c12 [Compound 245] yielded an IC50 of under 15 nM. Work on Cc1cccc2nc(-c3cccnc3OCCOCCOCCOCCOc3ncccc3-c3nc4cccc(C)c4c(=O)o3)oc(=O)c12 [Compound 59] yielded an IC50 of 61 to 150 nM. For CCCN1CCN(c2ncccc2-c2nc3cc(OC)cc(CC)c3c(=O)o2)CC1 [Compound 222], the IC50 was 16 to 60 nM. COc1cc(C(C)C)c2c(=O)oc(-c3cccnc3N3CC[C@@H](N(C)C)C3)nc2c1 [Compound 110] showed an IC50 of 61 to 150 nM. CCCc1cc(OC)cc2nc(-c3cccnc3N3CCC(C(=O)C[S+](C)[O-])CC3)oc(=O)c12 (stereo not drawn) [Compound 163] was tested, and the IC50 was 61 to 150 nM. Molecule CCc1cccc2nc(-c3cccnc3-n3cc[n+](CCCS(=O)(=O)[O-])c3)oc(=O)c12 [Compound 87] has an IC50 of under 15 nM. CCCc1cc(OC)cc2nc(-c3cccnc3N3CCN(CCN(C)C)CC3)oc(=O)c12 [Compound 158] showed an IC50 of 16 to 60 nM. For COc1ccc(-c2nc3cccc(C)c3c(=O)o2)c(OC)n1 [Compound 22], the IC50 was under 15 nM. CCc1cc(OC)cc2nc(-c3cccnc3N3CC[C@@H](N(C)CCO)C3)oc(=O)c12 [Compound 270] was tested, and the IC50 was under 15 nM. For C#CCN1CCN(c2ncccc2-c2nc3cccc(CC)c3c(=O)o2)CC1 [Compound 234], the IC50 was under 15 nM. Work on CCc1cc(OC)cc2nc(-c3cccnc3N3CCN(CCNC(=O)OC(C)(C)C)CC3)oc(=O)c12 [Compound 202] yielded an IC50 of 16 to 60 nM. Work on CCc1cc(OC)cc2nc(-c3cccnc3N3CCC(Cc4ccccc4)CC3)oc(=O)c12 [Compound 224] yielded an IC50 of 61 to 150 nM. With COCCN1CCN(c2c(-c3nc4cc(OC)cc(C(C)C)c4c(=O)o3)cnn2C)CC1 [Compound 119] the IC50 was over 150 nM. Cc1cccc2nc(-c3cccnc3OCCN(C)C)oc(=O)c12 [Compound 61] was tested, and the IC50 was over 150 nM. Work on CCc1cc(OC)cc2nc(-c3cccnc3N3CCC(N4CCCCC4)CC3)oc(=O)c12 [Compound 216] yielded an IC50 of under 15 nM. Work on C=CCN1C[C@@H](C)N(c2ncccc2-c2nc3cc(OC)cc(CC)c3c(=O)o2)C[C@H]1C [Compound 217] yielded an IC50 of under 15 nM. Work on CCc1cc(OC)cc2nc(-c3cccnc3N3CCC(CCN4CCCC4)CC3)oc(=O)c12 [Compound 257] yielded an IC50 of under 15 nM. In the case of Cc1cccc2nc(-c3cccnc3Cl)oc(=O)c12 [Compound 20], the IC50 is reported as 16 to 60 nM. In the case of CCc1cc(OC)cc2nc(-c3cccnc3N3CCC(O)CC3)oc(=O)c12 [Compound 214], the IC50 is reported as under 15 nM. COc1cc(C(C)C)c2c(=O)oc(-c3cccnc3N3CC[N+](C)(C)CC3)nc2c1 [Compound 130] was tested, and the IC50 was 61 to 150 nM. For COc1cc(C2CC2)c2c(=O)oc(-c3cccnc3N(C)CCN(C)C)nc2c1 [Compound 172], the IC50 was 61 to 150 nM. In the case of CCc1cc(OC)cc2nc(-c3cccnc3N3CC4(C)CN(C)CC(C)(C3)C4O)oc(=O)c12 (stereo not drawn) [Compound 255], the IC50 is reported as under 15 nM. CCc1cc(OC)cc2nc(-c3cccnc3N3C[C@H](CNC4CC4)[C@H](F)C3)oc(=O)c12 [Compound 258] gave an IC50 of 16 to 60 nM. In the case of O=c1oc(-c2cccnc2-n2ccnc2)nc2cccc(Br)c12 [Compound 72], the IC50 is reported as 61 to 150 nM. O=c1oc(-c2cccnc2Oc2ccc(Cl)cc2)nc2cccc(Cl)c12 [Compound 25] showed an IC50 of 16 to 60 nM. Work on COc1cc(C(C)C)c2c(=O)oc(-c3cnn(C)c3N3CCN(C)CC3)nc2c1 [Compound 123] yielded an IC50 of over 150 nM. C#CCN1CCN(c2ncccc2-c2nc3cc(OC)cc(CC)c3c(=O)o2)CC1 [Compound 233] was tested, and the IC50 was 16 to 60 nM. CCc1cc(OC)cc2nc(-c3cccnc3N3CC[C@@H](N(C)C)C3)oc(=O)c12 [Compound 131] gave an IC50 of under 15 nM. COc1cc(C(C)C)c2c(=O)oc(-c3cccnc3N3CC[N+](C)(CC(N)=O)CC3)nc2c1 [Compound 129] gave an IC50 of 61 to 150 nM. CCCc1cc(OC)cc2nc(-c3cccnc3N3CCN(CCN4CCOCC4)CC3)oc(=O)c12 [Compound 147] gave an IC50 of 61 to 150 nM. CCc1cc(OC)cc2nc(-c3cccnc3N3CCC(CCN4CCOCC4)CC3)oc(=O)c12 [Compound 247] gave an IC50 of under 15 nM. COc1cc(C2CC2)c2c(=O)oc(-c3cccnc3N3CCN(CCN4CCOCC4)CC3)nc2c1 [Compound 168] showed an IC50 of 61 to 150 nM.
